Results published in article PMC6271988, “New Potentially Active Pyrazinamide Derivatives Synthesized Under Microwave Conditions” (Molecules, 2014).

What was measured:
[1] = Lipophilicity HPLC determination (logk); format: physicochemical; conditions: HPLC capacity factor, C18, MeOH 70%/H2O 30%, 30 °C
[2] = system: Staphylococcus epidermidis; test: Antibacterial in vitro screening, microdilution broth method; format: cell-based; conditions: 80% inhibition of control
[3] = system: PET in spinach chloroplasts; test: Photosynthetic electron transport (PET) inhibition, DCPIP photoreduction; format: biochemical, Spinacia oleracea L.; conditions: DCPIP photoreduction
Description: The inhibition of photosynthetic electron transport (PET) in spinach chloroplasts was determined spectrophotometrically (Genesys 6, Thermo Scientific, Madison, WI, USA) using an artificial electron acceptor 2,6-dichlorophenol-indophenol (DCPIP). The rate of photosynthetic electron transport was monitored as a photoreduction of DCPIP. Chloroplasts were prepared from Spinacia oleracea L.. The measurements were carried out in phosphate buffer (0.02 mol/L, pH 7.2) containing sucrose (0.4 mol/L), MgCl2 (0.005 mol/L) and NaCl (0.015 mol/L). The chlorophyll concentration was 30 mg/L and the samples were irradiated (~100 W/m^2 with 10 cm distance) with a halogen lamp (250 W). […] The studied compound were dissolved in DMSO due to their limited water solubility. […] The efficiency of studied compounds was expressed as 50% inhibition concentration relative to the untreated control. The standard for these measurements was DCMU (Diurone®).

[4] = system: spectrum of fungi tested (8 fungal strains); test: Antifungal evaluation, summary over the fungi tested; format: cell-based; conditions: fungi tested, less active than the standards; read-out: IC80 antifungal
Description: Antifungal evaluation was also accomplished with microdilution broth method. On the contrary, there was used RPMI 1640 broth with glutamine as medium and conditions were humid and dark atmosphere, pH 7.0 (adjusted with 0.165 M morpholinepropanesulfonic acid, MOPS) and 35 °C. 8 fungal strains were used (Candida albicans ATCC 44859, Candida tropicalis 156, Candida krusei E28, Candida glabrata 20/I, Trichosporon asahii 1188, Aspergillus fumigatus 231, Lichtheimia corymbifera 272, Trichophyton mentagrophytes 445) together with four antimycotic standards amphotericin B, voriconazole, nystatin and fluconazole.

[5] = system: aromatic amino acids of photosynthetic proteins in spinach chloroplasts; test: Fluorescence emission spectra of aromatic amino acids in chloroplast suspension; design: species or system Spinacia oleracea L.; conditions: c = 0, 6, 24 and 48 μmol/L; excitation 275 nm; chlorophyll 10 mg/L
Description: The emission fluorescence spectra of aromatic amino acids were recorded on the fluorescence spectrophotometer F-2000 (Hitachi, Tokyo, Japan). The samples of chloroplast suspensions with and without studied inhibitor were excited at wavelength of 275 nm, excitation slit 20 nm and emission slit 10 nm. The samples were kept in the dark for 2 min prior to the measurement. The phosphate buffer used for dilution of the chloroplast suspension was the same as described above. The compounds were added to chloroplast suspension in DMSO solution due to low aqueous solubility. The DMSO concentration in all samples was the same as in the control (10%). The chlorophyll concentration in chloroplast suspension was 10 mg/L.

CCCCCCNc1nccnc1C(N)=O [Compound 7, 3-(Hexylamino)pyrazine-2-carboxamide]
logk [1]: 0.6860
IC80 [2]: < 250 µM
IC50 [3]: 32.9 µM
IC80 [4]: ≥ 250 µM
Quenching of aromatic amino acid fluorescence at 334 nm [5]: increased with increasing concentration
